System: influenza A and B viruses
Test: Inhibitory activity against virus (general statement)
Assay type: cell-based
Settings: statement in words

SMILES: C[C@H]1CC[C@H]2C(C)(C)[C@@H](O)CC[C@]23Oc2c(c(O)cc4c2CNC4=O)C[C@]13C [SQ-02-S5, (6a R, 7S, 9a S, 11 S, 13a S)-2,3,6,6a,7,8,9,9a,10,11,12,13-dodecahydro-5, 11-dihydroxy-6a, 7,10,10-tetramethyl-3-oxo-1H-benzo[8,8a][1]benzopyrano[2,3-e]isoindole]
- inhibitory activity against virus: strong inhibitory activity against virus
